Experimental data as given in patent US20240050576A1, “METHODS AND COMPOUNDS FOR THE TREATMENT OF GENETIC DISEASE” (Design Therapeutics, Inc., priority 2020, published 2024).

Test system: human FXN
Experiment: FXN mRNA expression by qRT-PCR in GM15850 cells after 48 hr compound treatment
Type: cell-based
Details: Homo sapiens; GM15850 cells, 48 hr incubation, hFXN normalized to hGAPDH; read-out: EC50 WT (nM, 48 hr)
Description: Cell culture: Cells were cultured in RPMI1640 medium+15% FBS. Cells were maintained at a density between 2e5/mL and 1e6/mL. Cells were centrifuged, resuspended in fresh medium, counted and plated at 150,000 cells per well in 100 uL in a non-coated, flat bottom tissue culture plate.
Compound treatment: 10 mM stock solution of FA GeneTAC was diluted 1:10 in DMSO followed by a 1:100 dilution in growth medium. […] Compound was then diluted at a 1:3 ratio into growth medium containing 0.01% DMSO. 5-point, 3-fold dose response curve was generated. 11 μL of 10× compound was added to wells containing 100 μL cell suspension of GM15850. 11 μL growth medium containing 0.01% DMSO was added to all wells not treated with FA GeneTAC. Cells were allowed to incubate for 48 hrs prior to cell lysis using guanidine isothiocyanate solution.
RNA isolation: Total RNA was isolated and purified in 384-well column filter plates using chaotropic salt.
qRT-PCR: qRT-PCR reactions were assembled using AgPath-ID reagents (Thermo Fisher) using 6 uL mastermix and 4 μL RNA. qRT-PCR TaqMan primer probe sets against human FXN (Assay ID Hs01075496_m1) and human GAPDH (Assay ID Hs00266705_g1) were used to measure the intended targets. qRT-PCR was run on the ThermoFisher QuantStudio 6 PRO instrument using the manufacturer's recommended cycling conditions.
Data analysis: qPCR data was analyzed using Thermo Fisher Design and Analysis software. Data was exported to Excel and hFXN expression was normalized to hGAPDH expression.

| SMILES | EC50 [nM] |
| --- | --- |
| Cc1noc(C)c1-c1cnc2c(-c3ccc(C(=O)NCCOCCOCCOCCOCCOCCOCCOCCNC(=O)CCNC(=O)c4nc(NC(=O)CCNC(=O)c5cc(NC(=O)c6nc(NC(=O)CCNC(=O)c7cc(NC(=O)c8nccn8C)cn7C)cn6C)cn5C)cn4C)cc3)cn([C@@H](C)c3ccccn3)c2c1 [Compound 41] | 100 to 500 |
| Cc1sc2c(c1C)C(c1ccc(Cl)cc1)=N[C@@H](CC(=O)Nc1ccc(OCCOCCOCCOCC(=O)N3CCN(CCOCCOCCOCCNC(=O)CCNC(=O)c4nc(NC(=O)CCNC(=O)c5cc(NC(=O)c6nc(NC(=O)CCNC(=O)c7cc(NC(=O)c8nccn8C)cn7C)cn6C)cn5C)cn4C)CC3)cc1)c1nnc(C)n1-2 [Compound 39] | < 100 |
| Cc1sc2c(c1C)C(c1ccc(Cl)cc1)=N[C@@H](CC(=O)Nc1ccc(OCCOCCOCCOCCOCCOCCOCCC(=O)NCCCN(C)CCCNC(=O)c3cc(NC(=O)c4nc(NC(=O)CCNC(=O)c5cc(NC(=O)c6nc(NC(=O)CCNC(=O)c7cc(NC(=O)c8nccn8C)cn7C)cn6C)cn5C)cn4C)cn3C)cc1)c1nnc(C)n1-2 [Compound 55] | 100 to 500 |
| Cc1sc2c(c1C)C(c1ccc(Cl)cc1)=N[C@@H](CC(=O)Nc1ccc(CCCOCCOCCOCCOCCOCCOCCOCCOCCNC(=O)CCNC(=O)c3nc(NC(=O)CCNC(=O)c4cc(NC(=O)c5nc(NC(=O)CCNC(=O)c6cc(NC(=O)c7nccn7C)cn6C)cn5C)cn4C)cn3C)cc1)c1nnc(C)n1-2 [Compound 63] | < 100 |
| Cc1sc2c(c1C)C(c1ccc(Cl)cc1)=N[C@@H](CC(=O)Nc1ccc(OCCOCCOCCOCCOCCOCCC(=O)NCCCN(C)CCCNC(=O)c3cc(NC(=O)c4nc(NC(=O)CCNC(=O)c5cc(NC(=O)c6nc(NC(=O)CCNC(=O)c7cc(NC(=O)c8nccn8C)cn7C)cn6C)cn5C)cn4C)cn3C)cc1)c1nnc(C)n1-2 [Compound 16] | 100 to 500 |
| Cc1sc2c(c1C)C(c1ccc(Cl)cc1)=N[C@@H](CC(=O)Nc1ccc(OCCOCCOCCOCCOCCOCCC(=O)NCCCN(C)CCCNC(=O)CCNC(=O)c3nc(NC(=O)CCNC(=O)c4cc(NC(=O)c5nc(NC(=O)CCNC(=O)c6cc(NC(=O)c7nccn7C)cn6C)cn5C)cn4C)cn3C)cc1)c1nnc(C)n1-2 [Compound 3] | 100 to 500 |
| CCCNC(=O)CCNC(=O)c1nc(NC(=O)CCNC(=O)c2cc(NC(=O)c3nc(NC(=O)CCNC(=O)c4cc(NC(=O)c5nc(NC(=O)COCCOCCOCCOCCOCCOCCOCCOCCOc6ccc(NC(=O)C[C@@H]7N=C(c8ccc(Cl)cc8)c8c(sc(C)c8C)-n8c(C)nnc87)cc6)cn5C)cn4C)cn3C)cn2C)cn1C [Compound 50] | < 100 |
| Cc1sc2c(c1C)C(c1ccc(Cl)cc1)=N[C@@H](CC(=O)Nc1ccc(OCCOCCOCCOCCOCCOCCOCCOCC(=O)NCCCN(C)CCCNC(=O)c3cc(NC(=O)c4nc(NC(=O)CCNC(=O)c5cc(NC(=O)c6nc(NC(=O)CCNC(=O)c7cc(NC(=O)c8nccn8C)cn7C)cn6C)cn5C)cn4C)cn3C)cc1)c1nnc(C)n1-2 [Compound 57] | 100 to 500 |
| Cc1sc2c(c1C)C(c1ccc(Cl)cc1)=N[C@@H](CC(=O)Nc1cccc(OCCOCCOCCOCCOCCOCCC(=O)NCCCN(C)CCCNC(=O)CCNC(=O)c3nc(NC(=O)CCNC(=O)c4cc(NC(=O)c5nc(NC(=O)CCNC(=O)c6cc(NC(=O)c7nccn7C)cn6C)cn5C)cn4C)cn3C)c1)c1nnc(C)n1-2 [Compound 62] | < 100 |
| Cc1sc2c(c1C)C(c1ccc(Cl)cc1)=N[C@@H](CC(=O)NC1CCN(CCOCCOCCOCCOCCOCCC(=O)NCCCN(CCCNC(=O)CCNC(=O)c3nc(NC(=O)CCNC(=O)c4cc(NC(=O)c5nc(NC(=O)CCNC(=O)c6cc(NC(=O)c7nccn7C)cn6C)cn5C)cn4C)cn3C)CC(F)(F)F)CC1)c1nnc(C)n1-2 [Compound 101] | 100 to 500 |
| Cc1noc(C)c1-c1cnc2c(-c3ccc(C(=O)NCCOCCOCCOCCOCCOCCC(=O)NCCCN(C)CCCNC(=O)CCNC(=O)c4nc(NC(=O)CCNC(=O)c5cc(NC(=O)c6nc(NC(=O)CCNC(=O)c7cc(NC(=O)c8nccn8C)cn7C)cn6C)cn5C)cn4C)cc3)cn([C@@H](C)c3ccccn3)c2c1 [Compound 8] | < 100 |
| COc1ccc2c(c1)C(c1ccc(Cl)cc1)=N[C@@H](CC(=O)Nc1ccc(OCCOCCOCCNC(=O)[C@H](CCCNC(=N)N)NC(=O)[C@H](CCCNC(=N)N)NC(=O)CCOCCOCCOCCNC(=O)CCNC(=O)c3nc(NC(=O)CCNC(=O)c4cc(NC(=O)c5nc(NC(=O)CCNC(=O)c6cc(NC(=O)c7nccn7C)cn6C)cn5C)cn4C)cn3C)cc1)c1nnc(C)n1-2 [Compound 100] | 100 to 500 |
| CC(=O)N1c2ccc(-c3ccc(C(=O)NCCOCCOCCOCCOCCOCCOCCOCCOCCNC(=O)c4nc(NC(=O)CCNC(=O)c5cc(NC(=O)c6nc(NC(=O)CCNC(=O)c7cc(NC(=O)c8nc(NC(=O)CCNC(=O)COCCOCCOCCNC(=N)N)cn8C)cn7C)cn6C)cn5C)cn4C)cc3)cc2[C@H](Nc2ccc(Cl)cc2)C[C@@H]1C [Compound 87] | 100 to 500 |
| CC(=O)N1c2ccc(-c3cnc(C(=O)NCCOCCOCCOCCOCCOCCOCCOCCOCCNC(=O)CCNC(=O)c4nc(NC(=O)CCNC(=O)c5cc(NC(=O)c6nc(NC(=O)CCNC(=O)c7cc(NC(=O)c8nccn8C)cn7C)cn6C)cn5C)cn4C)nc3)cc2N(Cc2ccccc2CO)C[C@@H]1C1CC1 [Compound 48, N-(5-[[2-([2-[(2-[[26-([5-[(2S)-1-acetyl-2-cyclopropyl-4-[[2-(hydroxymethyl)phenyl]methyl]-2,3-dihydroquinoxalin-6-yl]pyrimidin-2-yl]formamido)-3,6,9,12,15,18,21,24-octaoxahexacosan-1-yl]carbamoyl]ethyl)carbamoyl]-1-methylimidazol-4-yl]carbamoyl)ethyl]carbamoyl]-1-methylpyrrol-3-yl)-1-methyl-4-(3-[[1-methyl-4-(1-methylimidazole-2-amido)pyrrol-2-yl]formamido]propanamido)imidazole-2-carboxamide] | > 500 |
